We go through one compound from EPA's ToxValDB 9.5 (doi:10.2903/j.efsa.2014.3508).

One data set has as its system Coturnix japonica. Conditions: reproduction developmental; duration: 6 weeks; reproduction.
For the next data set, the system named is Oryctolagus sp. The note with it: developmental; development.
Another data set relates to Lepomis macrochirus. The note with it: acute; duration: 96 hours; mortality.
Another data set deals with Apis mellifera. The note with it: acute, mortality.
The next data set deals with Oncorhynchus mykiss. The note with it: chronic/long-term; duration: 87 days; growth.
In another data set the test system is Colinus virginianus. Conditions: acute, oral, mortality.
Another data set concerns Daphnia magna. The note with it: chronic/long-term; duration: 21 days; mobility.
For another data set, the system named is Typhlodromus pyri. The experiment in a line: LR50; higher = less toxic. Conditions: chronic/long-term; duration: 7 days; mortality.
The next data set deals with Aphidius rhopalosiphi. The experiment in a line: LR50; higher = less toxic. Conditions: acute; duration: 48 hours; mortality.

A word on the NOAEL: it is the highest dose or exposure tested at which no adverse effect was seen.

Turning to `CCOc1nc(NC)nc(NC(=O)NS(=O)(=O)c2ccccc2C(=O)OC)n1` [Ethametsulfuron-methyl], the NOAEL in the data set with Coturnix japonica is 229 mg/kg-day; with Oryctolagus sp., less than 250 mg/kg-day; with Rattus norvegicus (chronic, duration: 2 years, clinical chemistry), 21 mg/kg-day. Besides, the LC50 in the data set on Lepomis macrochirus is more than 123 mg/L; in the data set on Tagia sp. (acute, duration: 14 days, mortality), 116 mg/kg; in the data set on Colinus virginianus (duration: 5 days, diet) it was more than 1160 mg/kg-day. Further, the LD50 in the data set on Apis mellifera (duration: 48 hours, oral, unspecified) was 40.8 µg/piece; in the data set with Apis mellifera (duration: 72 hours, dermal), 4.62 µg/piece; with Rattus norvegicus (acute, oral, mortality) it was more than 5000 mg/kg-day; with Colinus virginianus it was 2250 mg/kg-day. For the same compound, the NOEC with Oncorhynchus mykiss is 5.4 mg/L; with Tagia sp. (chronic/long-term, duration: 56 days, reproduction), 27.3 mg/kg; in the data set with Daphnia magna it was 4.7 mg/L. Moreover, the LR50 in the data set with Typhlodromus pyri was 11.4 g/ha; in the data set on Aphidius rhopalosiphi it was more than 18.8 g/ha.
